Assay results reported in patent US12643954B2, “Anti-CD36 antibodies and their use to treat cancer” (ONA Therapeutics, S.L., priority 2020, dated 2026).
Each block holds one molecule with its values, some of them ahead of it.

Tests used:
[1] = system: Detroit 562 cells; test: Detroit 562 orthotopic mouse model of oral cancer metastasis; format: in vivo; details: single agent; antibody 1 mg/kg i.p. daily, cisplatin 2 mg/kg twice weekly
Protocol: NOD scid gamma (NSG) (NOD.Cg-Prkdc^scidII2rg^tm1Wj1/SzJ) mice were purchased from Charles River and crossed in-house. All mice were housed under a regimen of 12h light/12h dark cycles and SPF conditions, and all procedures were evaluated and approved by the CEEA (Ethical Committee for Animal Experimentation) from the Government of Catalunya. SCC intra-tongue injection was performed as previously described (Oskarsson et al., 2014; Nieman et al., 2011). Briefly, mice were anesthetized by intraperitoneal injection with a mixture of 50 mg per kg of ketamine and 0.5 mg per kg of medetomidin, and SCC cells resuspended in 30 μl PBS were injected into each mouse tongue with a BD ultra-fine 6 mm needle. Mice were monitored for the luciferase bioluminescent signal immediately after injection (TO) and once weekly thereafter with a Xenogen IVIS Imaging System-100 (Caliper Life Sciences). Briefly, animals were injected by retro-orbital injection with 50 μl of D-luciferin (Promega) diluted in 1×PBS at 5 mg ml^−1. […] Data was quantified with the Living Image software version 4.4 (Caliper Life Sciences). Quantifications were calculated with unsaturated pixels. […]
Antibody treatments were administered via intraperitoneal (i.p.) injection daily at a dose of 1 mg/kg. […] Further, mouse body weight was measured twice weekly to update appropriate dosage amounts. […]

[2] = system: FaDu cells; test: FaDu orthotopic mouse model of oral cancer metastasis; format: in vivo; details: single agent
Protocol: NOD scid gamma (NSG) (NOD.Cg-Prkdc^scidII2rg^tm1Wj1/SzJ) mice were purchased from Charles River and crossed in-house. All mice were housed under a regimen of 12h light/12h dark cycles and SPF conditions, and all procedures were evaluated and approved by the CEEA (Ethical Committee for Animal Experimentation) from the Government of Catalunya. SCC intra-tongue injection was performed as previously described (Oskarsson et al., 2014; Nieman et al., 2011). Briefly, mice were anesthetized by intraperitoneal injection with a mixture of 50 mg per kg of ketamine and 0.5 mg per kg of medetomidin, and SCC cells resuspended in 30 μl PBS were injected into each mouse tongue with a BD ultra-fine 6 mm needle. Mice were monitored for the luciferase bioluminescent signal immediately after injection (TO) and once weekly thereafter with a Xenogen IVIS Imaging System-100 (Caliper Life Sciences). Briefly, animals were injected by retro-orbital injection with 50 μl of D-luciferin (Promega) diluted in 1×PBS at 5 mg ml^−1. Continuous administration of isofluorane gas was provided to ensure anesthetizing animals during imaging. Data was quantified with the Living Image software version 4.4 (Caliper Life Sciences). Quantifications were calculated with unsaturated pixels. Color scale minimum and maximum values are shown in pictures.
Studies on the combination of the effects of the ONA-0-v1 anti-CD36 antibody, both with and without cisplatin, were performed in NSG mice (immuno-deficient). The studies included both male and female mice. All mice were inoculated with commercially available FaDu (ATCC) cancer cells, transduced with a retroviral vector expressing luciferase and the green fluorescent protein (Luc-GFP). FaDu cells were derived from a squamous cell carcinoma (i.e., from an oral cancer). Prior to inoculation, the FaDu cells were cultured in a humidified incubator at 37° C. with 5% CO2, and were grown in EMEM (LONZA) supplemented with 5 μg ml^−1 penicillin/streptomycin and 10% FBS (GIBCO).
For each mouse, 100,000 FaDu cells were inoculated via orthotopic injection.
Treatment of the inoculated mice began nine days after inoculation with the cancer cells. Inoculated mice were divided into four distinct treatment groups.
Antibody treatments were administered via intraperitoneal (i.p.) injection daily at a dose of 1 mg/kg. Cisplatin was administered twice weekly at a dose of 2 mg/kg (Groups 2 and 4). […] During the course of treatment, mice were observed once weekly using an in vivo imaging system (IVIS). Further, mouse body weight was measured twice weekly to update appropriate dosage amounts. At the end of the treatment period, the mice were sacrificed, and organs and tissues were collected for performance of immunohistochemistry analysis.

[3] = target: T1, cells overexpressing human CD36 (Homo sapiens, UniProt P16671); test: FACS binding to cells overexpressing human CD36; details: serial dilution up to 100 nM
T1 construct: expressed in transfected cells
Protocol: For FACS analysis, cells were trypsinized, collected in a 15 mL tube and diluted in washing buffer (2% FBS in PBS). Cells were then centrifuged at 1500 rpm for 5 min at 4° C., supernatant was discarded, and cells were resuspended in fresh washing buffer. Anti-CD36 antibodies were either omitted (control wash buffer treatment) or serially diluted in washing buffer (dilution range up to 100 nM), and then added to the cells. Incubation was performed on ice for 1 hour. Cells were then centrifuged at 1500 rpm for 5 min at 4° C., supernatant was discarded, and cells were resuspended in fresh washing buffer. Finally, cells were incubated with a […] (BV421 Rat Anti-Mouse IgA, Becton Dickinson, reference 743293) diluted 1:100 in washing buffer, washed and analysed by FACS.

[4] = target: T2, mouse CD36 (Mus musculus, UniProt Q08857); test: ELISA binding to plate-coated mouse CD36; details: recombinant mouse CD36 coated plates
T2 construct: purchased Sino Biological 50422-M08H
Protocol: (§1) To perform ELISA assays, 96-well ELISA plates were coated over night with human CD36 (Sino Biological, reference 10752-H08H) or mouse CD36 (Sino Biological, reference 50422-M08H) recombinant proteins at a concentration of 0.25 mg/ml. After two washes with PBS, plates were blocked with 4% skimmed milk in PBS for 1 hour at 37° C. Blocking solution was discarded and plates were washed five times with 200 μl/well PBS-Tween20 (0.5%). Primary antibodies were either omitted (control blocking solution treatment) or mixed in blocking solution at several dilutions ranging from 0.01 nM to 0.5 μM. The primary antibody solutions were added to the wells and incubated over night at 4° C. After 5 washes with 200 ul/well of PBS-Tween20 (0.5%), plates were incubated for 1 hour at room temperature with a goat anti-mouse HRP-conjugated antibody (Abeam, reference ab97235) diluted 1:2000 in blocking solution. Plates were then washed 5 times with 200 μl/well of PBS-Tween20 (0.5%), incubated with 100 μl/well TMB and detected after 10 minutes, 30 minutes, or 60 minutes with a spectrophotometer at a wave length of 630 nm.

[5] = target: CD36 (Homo sapiens, UniProt P16671); test: ELISA binding to plate-coated human CD36; set-up: purchased Sino Biological 10752-H08H; details: recombinant human CD36 coated plates
Protocol: as §1

T2 sequence (Q08857 30-439 limits assumed): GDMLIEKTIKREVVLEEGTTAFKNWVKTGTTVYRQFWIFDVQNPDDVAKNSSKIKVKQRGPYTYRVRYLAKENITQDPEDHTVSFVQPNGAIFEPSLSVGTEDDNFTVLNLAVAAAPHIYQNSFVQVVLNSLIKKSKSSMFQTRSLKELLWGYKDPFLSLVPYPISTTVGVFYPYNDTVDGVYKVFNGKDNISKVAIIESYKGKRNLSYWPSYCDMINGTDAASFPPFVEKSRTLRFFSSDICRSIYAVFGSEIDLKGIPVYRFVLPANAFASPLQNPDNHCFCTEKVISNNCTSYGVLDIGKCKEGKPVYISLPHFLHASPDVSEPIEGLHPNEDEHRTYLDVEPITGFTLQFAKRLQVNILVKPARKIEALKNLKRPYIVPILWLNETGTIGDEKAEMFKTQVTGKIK
Chain of CD36 (P16671 30-439 limits assumed): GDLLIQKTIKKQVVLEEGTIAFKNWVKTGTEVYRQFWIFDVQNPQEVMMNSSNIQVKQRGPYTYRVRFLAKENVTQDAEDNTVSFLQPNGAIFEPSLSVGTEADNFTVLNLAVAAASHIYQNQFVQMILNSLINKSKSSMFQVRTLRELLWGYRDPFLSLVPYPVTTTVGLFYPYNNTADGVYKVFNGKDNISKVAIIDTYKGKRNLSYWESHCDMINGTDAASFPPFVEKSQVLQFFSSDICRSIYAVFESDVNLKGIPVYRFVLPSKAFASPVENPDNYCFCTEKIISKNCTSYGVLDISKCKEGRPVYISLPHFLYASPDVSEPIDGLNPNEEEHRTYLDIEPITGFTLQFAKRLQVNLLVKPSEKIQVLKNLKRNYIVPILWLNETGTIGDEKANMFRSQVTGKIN
T1 sequence (P16671 whole entry): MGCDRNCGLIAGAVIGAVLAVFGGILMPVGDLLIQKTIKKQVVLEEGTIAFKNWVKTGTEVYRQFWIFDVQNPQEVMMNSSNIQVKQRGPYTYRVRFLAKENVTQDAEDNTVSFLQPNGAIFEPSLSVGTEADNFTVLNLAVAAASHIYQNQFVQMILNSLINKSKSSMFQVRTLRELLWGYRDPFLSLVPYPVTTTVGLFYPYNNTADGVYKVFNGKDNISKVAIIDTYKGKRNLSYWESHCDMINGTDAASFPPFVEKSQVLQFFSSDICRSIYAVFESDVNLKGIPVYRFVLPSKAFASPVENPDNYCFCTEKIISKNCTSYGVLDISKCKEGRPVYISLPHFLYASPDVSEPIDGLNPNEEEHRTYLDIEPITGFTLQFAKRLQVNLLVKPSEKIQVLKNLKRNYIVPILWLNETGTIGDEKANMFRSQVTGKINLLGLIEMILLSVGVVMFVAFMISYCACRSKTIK

Molecule: N.N.[Cl][Pt][Cl] [cisplatin, reference compound]
size of lung metastases [1]: did reduce the size
mice in which metastasis into lymph nodes was prevented ([2]; eight tested mice per group): one of the eight
effect on primary tumor (IVIS imaging and H&E staining) ([2]; antibody 1 mg/kg i.p. daily, cisplatin 2 mg/kg twice weekly): inhibited tumor growth

binding to cells overexpressing human CD36 (FACS) [3]: bound equivalently
B1: 1G06: chimeric ONA-0-v1 IgG1 antibody; heavy chain SEQ ID NO: 64, light chain SEQ ID NO: 23 (antibody)
heavy: QVQLKQSGADLVRPGASVKLSCKASGYTFTDYYINWVKQRPGQGLEWIARIYPGSGNTYYNEKFKGKATLTAEKSSSTAYMQLSSLTSEDSAVYFCARGIGGGFGMDYWGQGTSVTVSSASTKGPSVFPLAPSSKSTSGGTAALGCLVKDYFPEPVTVSWNSGALTSGVHTFPAVLQSSGLYSLSSVVTVPSSSLGTQTYICNVNHKPSNTKVDKKVEPKSCDKTHTCPPCPAPESTRGPSVFLFPPKPKDTLMISRTPEVTCVVVDVSHEDPEVKFNWYVDGVEVHNAKTKPREEQYNSTYRVVSVLTVLHQDWLNGKEYKCKVSNKALPAPIEKTISKAKGQPREPQVYTLPPSRDELTKNQVSLTCLVKGFYPSDIAVEWESNGQPENNYKTTPPVLDSDGSFFLYSKLTVDKSRWQQGNVFSCSVMHEALHNHYTQKSLSLSPGK
light: SIVMTQTPKFLLVSAGDRITITCKASQSVSDDVAWYQQKPGQSPKLLIYYASNRYTGVPDRFTGSGYGTDFTFTISTVQAEDLAVYFCQQDYSSPLTFGAGTKLEIKRTVAAPSVFIFPPSDEQLKSGTASVVCLLNNFYPREAKVQWKVDNALQSGNSQESVTEQDSKDSTYSLSSTLTLSKADYEKHKVYACEVTHQGLSSPVTKSFNRGEC

binding to mouse CD36 in ELISA [4]: did not interact
binding to human CD36 in ELISA [5]: did not interact
B2: ONA-0-v2: murine IgA antibody; heavy chain SEQ ID NO: 5, light chain SEQ ID NO: 9 (antibody)
heavy: QVQLKQSGADLVRPGASVKLSCKASGYTFTDYYINWVKQRPGQGLEWIARIYPGSGNTYYNEKFKGKATLTAEKSSSTAYMQLSSLTSEDSAVYFCARGIGGGFGMDYWGQGTSVTVSSESARNPTIYPLTLPPVLCSDPVIIGCLIHDYFPFGTMNVTWGKSGKDITTVNFPPALASGGRYTMSSQLTLPAVECPEGESVKCSVQHDSNPVQELDVNCSPTPPPPITIPSCQPSLSLQRPALEDLLLGSDASITCTLNGLRNPEGAAFTWEPSTGKDAVQKKAAQNSCGCYSVSSVLPGCAERWNSGASFKCTVTHPESGTLTGTIAKVTVNTFPPQVHLLPPPSEELALNELLSLTCLVRAFNPKEVLVRWLHGNEELSPESYLVFEPLKEPGEGATTYLVTSVLRVSAETWKQGDQYSCMVGHEALPMNFTQKTIDRLSGKPTNVSVSVIMSEGDGICY
light: NIVMTQSPKSMSMSVGERVTLTCKASENVVTYVSWYQQKPEQSPKLLIYGASNRYTGVPDRFTGSGSATDFTLTISSVQAEDLADYHCGQGYSYPYTFGGGTKLEIKRADAAPTVSIFPPSSEQLTSGGASVVCFLNNFYPKDINVKWKIDGSERQNGVLNSWTDQDSKDSTYSMSSTLTLTKDEYERHNSYTCEATHKTSTSPIVKSFNRNEC
modifications: ONA-0-v1 heavy chain; ONA-0-v2 light chain
